Assay [1] in a line: Retention time of the compound at 200 uM in presence of 50 mM GSH by HPLC analysis.
Another assay has as its system MDA-MB-231. Put plainly: Growth inhibition of human MDA-MB-231 cells after 72 hrs by MTT assay. In kind it is cell-based. As to conditions: MDA-MB-231, 72 h. (In general: Tetrazolium dyes change colour on reduction, which living cells bring about.)
The species named for another assay is Homo sapiens. Put plainly: Inhibition of beta-tubulin polymerization in human MDA-MB-231 cells at 50 nM after 1 hr by NucBlue staining based immunofluorescence microscopic assay. In kind it is cell-based.

Activity calls are given as the source filed them. No cut-off for these calls is given here.

Regarding `N#CC(C#N)=C1C=C(/C=C/c2ccc(N)cc2)Oc2ccccc21`, the Retention time in assay [1] turned out to be 8.6 min.
What is called GI50 is the concentration that inhibits growth by half. A lower GI50 goes with greater sensitivity of the cells. For the compound `COc1ccc(/C=C\c2cc(OC)c(OC)c(OC)c2)cc1O` [COMBRETASTATIN A4], the GI50 in the assay on MDA-MB-231 turned out to be 2.81 nM. Moreover, the inhibition entry in the assay listed under Homo sapiens was “Active”. In addition, in assay [1], the Retention time worked out at 6.8 min.

Source of the values: ChEMBL document CHEMBL3997847, “Development of a novel near-infrared fluorescent theranostic combretastain A-4 analogue, YK-5-252, to target triple negative breast cancer” (Bioorg Med Chem, 2017).
